This is an account of results in patent publication US10517826B2, “Anthostema senegalense-based composition for use as an anti-AIDS drug” (LABORATOIRE MICHEL IDERNE, priority 2014, dated 2019).

The subject of assay [1] is type 1 HIV virus (strain IIIB). Nature of the assay: in vitro anti-HIV test, median inhibitory concentration on HIV-1. The note with it: HIV-1 Strain IIIB. It is filed as cell-based. As to the method:
(§1) An apolar extract and a polar extract of Anthostema senegalense were prepared by extraction with dichloromethane and methanol, respectively, from dried stem bark of Anthostema senegalense.
(§2) The efficacy of these extracts against the HIV virus was tested in vitro by measuring the median inhibitory concentration (IC50) of these substances on the type 1 HIV virus (strain IIIB) and on the type 2 virus (strain ROD). Their selectivity index was also measured in each case.
(§3) In order to serve as a control, three known antiretroviral molecules used in the treatment of the infection with HIV: nevirapine, dideoxycitidine and dideoxyinosine were also tested under the same conditions for comparison.

In assay [2] the test system is type 2 virus (strain ROD). As to the kind of experiment: in vitro anti-HIV test, median inhibitory concentration on HIV-2. It is filed as cell-based. To be noted: HIV-2 ROD Strain. The procedure: as §1, §2, §3

In brackets after ≈: the same amount, converted by molar mass. Like-named read-outs stand apart in the source and are kept apart here. A value given as a limit tells only on which side of the number the result lay.

Broadly, the IC50 is the concentration that inhibits the measured activity by half. For `Nc1ccn([C@H]2CC[C@@H](CO)O2)c(=O)n1` [Dideoxycitidine, dideoxycitidine], the concentration for half-maximal inhibition (IC50) in assay [1] was determined as 0.29 µg/mL (≈ 1.37 µM); in assay [2], 0.30 µg/mL (≈ 1.42 µM).

With `Cc1ccnc2c1NC(=O)c1cccnc1N2C1CC1` [Nevirapine, nevirapine], the IC50 is 0.047 µg/mL (≈ 0.176 µM) in assay [1] (Human immunodeficiency virus 1, read-out: IC50) and more than 4 µg/mL in assay [2] (Human immunodeficiency virus 2, read-out: IC50).

As to `O=c1[nH]cnc2c1ncn2[C@H]1CC[C@@H](CO)O1` [Dideoxyinosine, dideoxyinosine], the IC50 in assay [1] was determined as 2.89 µg/mL (≈ 12.2 µM); in assay [2] it was 4.59 µg/mL (≈ 19.4 µM).
